According to US6525214B1, “Therapeutic agent” (priority 1991, dated 2003):

Assays:
[1] = Appearance of formulation made with the drug form; assay type: physicochemical
Method: The polyethylene glycol was mixed with about 25% of the required purified water and the Carbopol® dispersed in this mixture. About 56% of the required purified water was added with rapid stirring until the CARBOPOL® was well dispersed and appeared hydrated. The sodium hydroxide was dissolved in a minimum of purified water and added to the bulk with stirring. The S(+)-ibuprofen sodium salt dihydrate was dissolved in a mixture of phenoxyethanol, propylene glycol and remaining purified water and added to the Carbopol® gel with rapid stirring.
The LYCASIN® and glycerin were mixed together. The domiphen bromide was dissolved in the alcohol. The sodium salt was added to this alcoholic solution along with sufficient purified water to produce a solution. The aqueous alcoholic solution was added to the LYCASIN®/glycerin mixture and mixed well. Optional flavourings may be added to the above formulation.
The LYCASIN® and glycerin were mixed together and diluted with a suitable volume of water. The sodium salt was dispersed and dissolved in the mixture. The domiphen bromide was dissolved in the alcohol and this solution added slowly with stirring to the bulk. The formulation was made up to volume and mixed well. Optional flavourings may be added to the formulation.
The powders were sieved through a 30 mesh sieve and blended together, then filled into sachets containing 2000 mg of powder. Optional flavourings may be added to the above mixture.

[2] = in humans; cited from earlier work
[3] = topical gel formulation of Example 20 (Carbopol gel base)
[4] = higher strength oral liquid formulation of Example 25
[5] = low strength oral liquid formulation of Example 23

Compound | Appearance of product [1, 3] | Conversion into S(+)-ibuprofen [2] | Appearance on addition to hot water ([1]; cold relief powder formulation base of Example 27, hot water 70° C. or greater) | Appearance of product [1, 4] | Appearance of product [1, 5]
CC(C)Cc1ccc(C(C)C(=O)[O-])cc1.[Na+] (racemic) [sodium salt of ibuprofen racemate, sodium 2-(4-isobutylphenyl)propionate] | a totally unsatisfactory product that separated into a clear upper liquid and a cloudy viscous lower layer |  |  |  | 
CC(C)Cc1ccc([C@@H](C)C(=O)O)cc1 [R(−)-ibuprofen, R(−)-2-(4-isobutylphenyl)propionic acid] |  | partially converted into S(+)-ibuprofen |  |  | 
CC(C)Cc1ccc([C@H](C)C(=O)O)cc1 [S(+)-ibuprofen free acid, S(+)-2-(4-isobutylphenyl)propionic acid] | an opaque product of a high viscosity not suitable for use as a topical rub |  | an unpalatable oily layer on the surface of the hot water | an unsuitable product with the drug floating on the surface | a poor product with a significant proportion of the S(+)-ibuprofen floating on the surface of the product
CC(C)Cc1ccc([C@H](C)C(=O)[O-])cc1.O.O.[Na+] [S(−)sodium 2-(4-isobutylphenyl)propionate dihydrate] |  |  |  | a clear bright liquid | a bright clear product
